# Experiments:
# Type in all cases: in vivo
# [1] = tested on: chickweed (Stellaria media); assay: Test B postemergence plant response; conditions: for Chickweed plant response rating (0 to 100 scale): 62 g ai/ha, 0 is no effect, 13 to 15 days
# In short: (§1)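 Plants at the 1- to 4-leaf stage (2 to 18 cm tall), grown in pots of peat moss/vermiculite medium with wetting agent and starter nutrients, received postemergence applications of test chemicals. After 13 to 15 days in a greenhouse, injury was rated visually against untreated controls on a 0 (no effect) to 100 (complete control) scale.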
# [2] = tested on: winter barley (Hordeum vulgare); assay: Test B postemergence plant response; conditions: for Barley plant response rating (0 to 100 scale): 62 g ai/ha, 0 is no effect, 13 to 15 days
# In short: as §1
# [3] = tested on: canarygrass (Phalaris minor); assay: Test B postemergence plant response; conditions: for Canarygrass plant response rating (0 to 100 scale): 62 g ai/ha, 0 is no effect, 13 to 15 days
# In short: as §1
# [4] = tested on: windgrass (Apera spica-venti); assay: Test B postemergence plant response; conditions: for Windgrass plant response rating (0 to 100 scale): 62 g ai/ha, postemergence, 0 is no effect, 100 is complete control, 13 to 15 days; for Plant response rating, Windgrass: Postemergence
# In short: as §1
# corn (Zea mays) = assay: Test A pre-/postemergence plant response
# In short: (§2)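 Approximately ten days after concurrent pre- and postemergence spraying in a greenhouse, plants were compared with untreated controls and rated visually for injury, 0 = no effect to 100 = complete control. Preemergence spray was directed onto loam/sand soil; postemergence targeted 1–2 leaf seedlings.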
# [5] = tested on: velvetleaf (Abutilon theophrasti); assay: Test A pre-/postemergence plant response
# In short: as §2
# [6] = tested on: morningglory (Ipomoea spp.); assay: Test A pre-/postemergence plant response
# In short: as §2
# [7] = tested on: wheat (Triticum aestivum); assay: Test A pre-/postemergence plant response
# In short: as §2
# [8] = tested on: pigweed (Amaranthus retroflexus); assay: Test A pre-/postemergence plant response
# In short: as §2
# [9] = tested on: giant foxtail (Setaria faberii); assay: Test A pre-/postemergence plant response
# In short: as §2
# [10] = tested on: barnyardgrass (Echinochloa crus-galli); assay: Test A pre-/postemergence plant response
# In short: as §2
# [11] = tested on: large crabgrass (Digitaria sanguinalis); assay: Test A pre-/postemergence plant response
# In short: as §2
# [12] = 31 g ai/ha, postemergence, scale 0 to 100, 0 is no effect, 100 is complete control
# [13] = postemergence, 100 is complete control
# [14] = Postemergence, 125 g ai/ha, scale 0 to 100 (0 no effect, 100 complete control)
# [15] = Postemergence, 250 g ai/ha, scale 0 to 100 (0 no effect, 100 complete control)
# [16] = 125 g ai/ha, scale 0 to 100 (0 no effect, 100 complete control)
# [17] = Postemergence, 125 g ai/ha, 0 to 100 scale where 0 is no effect and 100 is complete control
# [18] = Postemergence, 500 g ai/ha, 0 to 100 scale, 0 = no effect, 100 = complete control, approx. ten days
# [19] = Preemergence, 125 g ai/ha, 0 to 100 scale, 0 = no effect, 100 = complete control
# [20] = Preemergence, 500 g ai/ha, visual injury, 0 to 100 scale (0 no effect, 100 complete control), approx. ten days
# [21] = Postemergence, 31 g ai/ha, 0 to 100 scale (0 no effect, 100 complete control)
compound,measurement,setting,value
COCCCn1c(-c2cc(F)cc(F)c2)ncc(C(=O)C2=C(O)CCCC2=O)c1=O [Compound 120],"Plant response rating, Chickweed",[1]; [12],60
same,Chickweed plant response rating (0 to 100 scale),[1]; [13],75
same,"Plant response rating, Chickweed",[1]; [14],85
same,"Plant response rating, Chickweed",[1]; [15],100
same,Barley plant response rating (0 to 100 scale),[2]; [13],5
same,"Plant response rating, Barley",[2]; [14],5
same,"Plant response rating, Barley",[2]; [15],5
same,"Plant response rating, Canarygrass",[3]; [12],0
same,Canarygrass plant response rating (0 to 100 scale),[3]; [13],30
same,"Plant response rating, Canarygrass",[3]; [14],55
same,"Plant response rating, Canarygrass",[3]; [15],55
same,Windgrass plant response rating (0 to 100 scale),[4],80
same,"Plant response rating, Windgrass",[4]; [16],90
same,"Plant response rating, Corn",corn (Zea mays); [17],10
same,"Plant response rating, Corn",corn (Zea mays); [18],50
same,"Plant response rating, Corn",corn (Zea mays); [19],20
same,"Plant response rating, Corn",corn (Zea mays); [20],30
same,"Plant response rating, Velvetleaf",[5]; [17],100
same,"Plant response rating, Velvetleaf",[5]; [18],100
same,"Plant response rating, Velvetleaf",[5]; [19],80
same,"Plant response rating, Velvetleaf",[5]; [20],100
same,"Plant response rating, Morningglory",[6]; [17],100
same,"Plant response rating, Morningglory",[6]; [18],100
same,"Plant response rating, Morningglory",[6]; [19],30
same,"Plant response rating, Morningglory",[6]; [20],90
same,"Plant response rating, Wheat",[7]; [17],20
same,"Plant response rating, Wheat",[7]; [18],70
same,"Plant response rating, Wheat",[7]; [19],0
same,"Plant response rating, Wheat",[7]; [20],70
same,"Plant response rating, Pigweed",[8]; [17],90
same,"Plant response rating, Pigweed",[8]; [18],100
same,"Plant response rating, Pigweed",[8]; [19],100
same,"Plant response rating, Pigweed",[8]; [20],100
same,"Plant response rating, Foxtail, Giant",[9]; [17],80
same,"Plant response rating, Foxtail, Giant",[9]; [18],90
same,"Plant response rating, Foxtail, Giant",[9]; [19],90
same,"Plant response rating, Foxtail, Giant",[9]; [20],100
same,"Plant response rating, Barnyardgrass",[10]; [17],90
same,"Plant response rating, Barnyardgrass",[10]; [18],90
same,"Plant response rating, Barnyardgrass",[10]; [19],70
same,"Plant response rating, Barnyardgrass",[10]; [20],100
same,"Plant response rating, Crabgrass, Large",[11]; [17],90
same,"Plant response rating, Crabgrass, Large",[11]; [18],100
same,"Plant response rating, Crabgrass, Large",[11]; [19],100
same,"Plant response rating, Crabgrass, Large",[11]; [20],100
CCCCn1c(-c2cc(F)cc(F)c2)ncc(C(=O)C2=C(O)CCCC2=O)c1=O [Compound 121],"Plant response rating, Chickweed",[1]; [12],100
same,Chickweed plant response rating (0 to 100 scale),[1]; [13],100
same,"Plant response rating, Chickweed",[1]; [14],100
same,"Plant response rating, Chickweed",[1]; [15],100
same,"Plant response rating, Barley",[2]; [12],0
same,Barley plant response rating (0 to 100 scale),[2]; [13],5
same,"Plant response rating, Barley",[2]; [14],5
same,"Plant response rating, Barley",[2]; [15],10
same,"Plant response rating, Canarygrass",[3]; [12],0
same,Canarygrass plant response rating (0 to 100 scale),[3]; [13],5
same,"Plant response rating, Canarygrass",[3]; [14],5
same,"Plant response rating, Canarygrass",[3]; [15],30
same,Windgrass plant response rating (0 to 100 scale),[4],98
same,"Plant response rating, Windgrass",[4]; [16],100
same,"Plant response rating, Corn",corn (Zea mays); [17],0
same,"Plant response rating, Corn",corn (Zea mays); [18],40
same,"Plant response rating, Corn",corn (Zea mays); [19],0
same,"Plant response rating, Corn",corn (Zea mays); [20],30
same,"Plant response rating, Velvetleaf",[5]; [17],100
same,"Plant response rating, Velvetleaf",[5]; [18],100
same,"Plant response rating, Velvetleaf",[5]; [19],80
same,"Plant response rating, Velvetleaf",[5]; [20],100
same,"Plant response rating, Morningglory",[6]; [17],100
same,"Plant response rating, Morningglory",[6]; [18],100
same,"Plant response rating, Morningglory",[6]; [19],0
same,"Plant response rating, Morningglory",[6]; [20],70
same,"Plant response rating, Wheat",[7]; [17],30
same,"Plant response rating, Wheat",[7]; [18],60
same,"Plant response rating, Wheat",[7]; [19],0
same,"Plant response rating, Wheat",[7]; [20],50
same,"Plant response rating, Pigweed",[8]; [17],100
same,"Plant response rating, Pigweed",[8]; [18],100
same,"Plant response rating, Pigweed",[8]; [19],80
same,"Plant response rating, Pigweed",[8]; [20],100
same,"Plant response rating, Foxtail, Giant",[9]; [17],90
same,"Plant response rating, Foxtail, Giant",[9]; [18],90
same,"Plant response rating, Foxtail, Giant",[9]; [19],80
same,"Plant response rating, Foxtail, Giant",[9]; [20],100
same,"Plant response rating, Barnyardgrass",[10]; [17],80
same,"Plant response rating, Barnyardgrass",[10]; [18],100
same,"Plant response rating, Barnyardgrass",[10]; [19],20
same,"Plant response rating, Barnyardgrass",[10]; [20],100
same,"Plant response rating, Crabgrass, Large",[11]; [17],80
same,"Plant response rating, Crabgrass, Large",[11]; [18],100
same,"Plant response rating, Crabgrass, Large",[11]; [19],90
same,"Plant response rating, Crabgrass, Large",[11]; [20],100
COCCn1c(-c2cccc(F)c2)ncc(C(=O)C2=C(O)CCCC2=O)c1=O [Compound 123],Chickweed plant response rating (0 to 100 scale),[1]; [13],75
same,"Plant response rating, Chickweed",[1]; [21],70
same,"Plant response rating, Chickweed",[1]; [14],95
same,"Plant response rating, Chickweed",[1]; [15],100
same,Barley plant response rating (0 to 100 scale),[2]; [13],10
same,"Plant response rating, Barley",[2]; [21],5
same,"Plant response rating, Barley",[2]; [14],25
same,"Plant response rating, Barley",[2]; [15],50
same,Canarygrass plant response rating (0 to 100 scale),[3]; [13],40
same,"Plant response rating, Canarygrass",[3]; [21],25
same,"Plant response rating, Canarygrass",[3]; [14],55
same,"Plant response rating, Canarygrass",[3]; [15],85
same,Windgrass plant response rating (0 to 100 scale),[4],60
same,"Plant response rating, Windgrass","[4]; 31 g ai/ha, 0 to 100 scale (0 no effect, 100 complete control)",30
same,"Plant response rating, Windgrass",[4]; [16],80
same,"Plant response rating, Corn",corn (Zea mays); [17],20
same,"Plant response rating, Corn",corn (Zea mays); [18],70
same,"Plant response rating, Corn",corn (Zea mays); [19],0
same,"Plant response rating, Corn",corn (Zea mays); [20],30
same,"Plant response rating, Velvetleaf",[5]; [17],100
same,"Plant response rating, Velvetleaf",[5]; [18],100
same,"Plant response rating, Velvetleaf",[5]; [19],70
same,"Plant response rating, Velvetleaf",[5]; [20],100
same,"Plant response rating, Morningglory",[6]; [17],100
same,"Plant response rating, Morningglory",[6]; [18],100
same,"Plant response rating, Morningglory",[6]; [19],70
same,"Plant response rating, Wheat",[7]; [17],0
same,"Plant response rating, Wheat",[7]; [18],20
same,"Plant response rating, Wheat",[7]; [19],0
same,"Plant response rating, Wheat",[7]; [20],20
same,"Plant response rating, Pigweed",[8]; [17],100
same,"Plant response rating, Pigweed",[8]; [18],100
same,"Plant response rating, Pigweed",[8]; [19],90
same,"Plant response rating, Pigweed",[8]; [20],100
same,"Plant response rating, Foxtail, Giant",[9]; [17],70
same,"Plant response rating, Foxtail, Giant",[9]; [18],80
same,"Plant response rating, Foxtail, Giant",[9]; [19],50
same,"Plant response rating, Foxtail, Giant",[9]; [20],100
same,"Plant response rating, Barnyardgrass",[10]; [17],80
same,"Plant response rating, Barnyardgrass",[10]; [18],90
same,"Plant response rating, Barnyardgrass",[10]; [19],50
same,"Plant response rating, Barnyardgrass",[10]; [20],100
same,"Plant response rating, Crabgrass, Large",[11]; [17],80
same,"Plant response rating, Crabgrass, Large",[11]; [18],90
same,"Plant response rating, Crabgrass, Large",[11]; [19],100
same,"Plant response rating, Crabgrass, Large",[11]; [20],100

# Reference: patent publication US8952024B2, “Herbicidal pyrimidone derivatives” (E I du Pont de Nemours and Company, priority 2009, dated 2015)
